Reference: ChEMBL document CHEMBL1828586 (J Med Chem, 2011)
pIC50: −log10 of the molar value.

System: A-375
Experiment: Anticancer activity against human A375 cells after 96 hrs by SRB assay
Type: functional, cell-based
Conditions: A-375, 96 h

SMILES | pIC50
COc1cc(C(=O)c2cccc(-c3ccccc3)c2)cc(OC)c1OC | 7.06
COc1cc(C(=O)c2csc(-c3ccccc3)c2)cc(OC)c1OC | 7.82
COc1cc(C(=O)c2cnc(-c3ccccc3)s2)cc(OC)c1OC | 4.87
COc1cc(C(=O)N2CCC(c3ccccc3)CC2)cc(OC)c1OC | < 4.52
COc1cc(/C(=N\O)c2csc(-c3ccccc3)n2)cc(OC)c1OC | 5.11
COc1cc(/C(=N/N)c2csc(-c3ccccc3)n2)cc(OC)c1OC | 6.05
COc1cc(/C(=N\N)c2csc(-c3ccccc3)n2)cc(OC)c1OC | 6.22
COc1cc(C(O)c2csc(-c3ccccc3)n2)cc(OC)c1OC (configuration not stated) | < 4.52
COc1cc(C(=O)[C@@H]2CSC(c3ccc(O[Si](C)(C)C(C)(C)C)cc3)=N2)cc(OC)c1OC | 6.15
CNCc1ccc(-c2nc(C(=O)c3cc(OC)c(OC)c(OC)c3)cs2)cc1 | < 5.00
COc1cc(C(=O)c2csc(-c3ccc(CN(C)C)cc3)n2)cc(OC)c1OC | < 5.00
COc1cc(NC(=O)c2csc(-c3ccccc3)n2)cc(OC)c1OC | < 4.52

The next lines start with the values.

pIC50 | SMILES
6.30 | COc1cc(C(=O)[C@@H]2COC(c3ccccc3)=N2)cc(OC)c1OC
6.52 | COc1cc(C(=O)c2coc(-c3ccccc3)n2)cc(OC)c1OC
< 4.52 | COc1cc(C(=O)c2cc(-c3ccccc3)ncn2)cc(OC)c1OC
< 4.52 | COc1cc(C(=O)c2cc(-c3ccccc3)on2)cc(OC)c1OC
< 4.52 | COc1cc(C(=O)Nc2csc(-c3ccccc3)n2)cc(OC)c1OC
5.10 | COc1cc(C(=O)c2csc(-c3ccc(CNC(=O)OC(C)(C)C)cc3)n2)cc(OC)c1OC

System: PC-3
Experiment: Anticancer activity against human PC3 cells after 96 hrs by SRB assay
Type: functional, cell-based
Conditions: PC-3, 96 h

SMILES | pIC50
COc1cc(C(=O)c2cccc(-c3ccccc3)c2)cc(OC)c1OC | 6.91
COc1cc(C(=O)c2csc(-c3ccccc3)c2)cc(OC)c1OC | 7.92
COc1cc(C(=O)c2cnc(-c3ccccc3)s2)cc(OC)c1OC | < 5.00
COc1cc(C(=O)N2CCC(c3ccccc3)CC2)cc(OC)c1OC | < 4.70
COc1cc(/C(=N\O)c2csc(-c3ccccc3)n2)cc(OC)c1OC | < 5.00
COc1cc(/C(=N/N)c2csc(-c3ccccc3)n2)cc(OC)c1OC | 5.95
COc1cc(/C(=N\N)c2csc(-c3ccccc3)n2)cc(OC)c1OC | 5.98
COc1cc(C(O)c2csc(-c3ccccc3)n2)cc(OC)c1OC (configuration not stated) | < 5.00
COc1cc(C(=O)[C@@H]2CSC(c3ccc(O[Si](C)(C)C(C)(C)C)cc3)=N2)cc(OC)c1OC | 6.74
CNCc1ccc(-c2nc(C(=O)c3cc(OC)c(OC)c(OC)c3)cs2)cc1 | < 5.00
COc1cc(C(=O)c2csc(-c3ccc(CN(C)C)cc3)n2)cc(OC)c1OC | < 5.00
COc1cc(C(=O)c2csc(Nc3ccc(C)cc3)n2)cc(OC)c1OC | 7.42
COc1cc(NC(=O)c2csc(-c3ccccc3)n2)cc(OC)c1OC | < 5.00

Results, then the compound that gave them:

pIC50 | SMILES
6.53 | COc1cc(C(=O)c2coc(-c3ccccc3)n2)cc(OC)c1OC
5.08 | COc1cc(C(=O)c2cc(-c3ccccc3)ncn2)cc(OC)c1OC
< 5.00 | COc1cc(C(=O)c2cc(-c3ccccc3)on2)cc(OC)c1OC
< 5.00 | COc1cc(C(=O)Nc2csc(-c3ccccc3)n2)cc(OC)c1OC
5.51 | COc1cc(C(=O)c2csc(-c3ccc(CNC(=O)OC(C)(C)C)cc3)n2)cc(OC)c1OC

System: DU-145
Experiment: Anticancer activity against human DU145 cells after 96 hrs by SRB assay
Type: functional, cell-based
Conditions: DU-145, 96 h

SMILES | pIC50
COc1cc(C(=O)c2cccc(-c3ccccc3)c2)cc(OC)c1OC | 6.77
COc1cc(C(=O)c2csc(-c3ccccc3)c2)cc(OC)c1OC | 7.59
COc1cc(C(=O)c2cnc(-c3ccccc3)s2)cc(OC)c1OC | < 5.00
COc1cc(C(=O)N2CCC(c3ccccc3)CC2)cc(OC)c1OC | < 4.70
COc1cc(/C(=N\O)c2csc(-c3ccccc3)n2)cc(OC)c1OC | < 5.00
COc1cc(/C(=N/N)c2csc(-c3ccccc3)n2)cc(OC)c1OC | 5.92
COc1cc(C(O)c2csc(-c3ccccc3)n2)cc(OC)c1OC (configuration not stated) | < 5.00
COc1cc(C(=O)[C@@H]2CSC(c3ccc(O[Si](C)(C)C(C)(C)C)cc3)=N2)cc(OC)c1OC | 6.36
CNCc1ccc(-c2nc(C(=O)c3cc(OC)c(OC)c(OC)c3)cs2)cc1 | 5.00
COc1cc(C(=O)c2csc(-c3ccc(CN(C)C)cc3)n2)cc(OC)c1OC | < 5.00
COc1cc(C(=O)c2csc(Nc3ccc(C)cc3)n2)cc(OC)c1OC | 7.46
COc1cc(NC(=O)c2csc(-c3ccccc3)n2)cc(OC)c1OC | < 5.00

Next, values leading:

pIC50 | SMILES
6.53 | COc1cc(C(=O)c2coc(-c3ccccc3)n2)cc(OC)c1OC
5.16 | COc1cc(C(=O)c2cc(-c3ccccc3)ncn2)cc(OC)c1OC
< 5.00 | COc1cc(C(=O)c2cc(-c3ccccc3)on2)cc(OC)c1OC
< 5.00 | COc1cc(C(=O)Nc2csc(-c3ccccc3)n2)cc(OC)c1OC
5.37 | COc1cc(C(=O)c2csc(-c3ccc(CNC(=O)OC(C)(C)C)cc3)n2)cc(OC)c1OC

System: not listed separately
Experiment: Anticancer activity against mouse B16-F1 cells after 96 hrs by SRB assay
Type: functional, cell-based
Conditions: B16-F1, 96 h

SMILES | pIC50
COc1cc(C(=O)[C@@H]2COC(c3ccccc3)=N2)cc(OC)c1OC | 5.19
COc1cc(C(=O)c2coc(-c3ccccc3)n2)cc(OC)c1OC | 6.22
COc1cc(C(=O)c2cccc(-c3ccccc3)c2)cc(OC)c1OC | 6.30
COc1cc(C(=O)c2cc(-c3ccccc3)ncn2)cc(OC)c1OC | < 4.52
COc1cc(C(=O)c2csc(-c3ccccc3)c2)cc(OC)c1OC | 7.14
COc1cc(C(=O)c2cnc(-c3ccccc3)s2)cc(OC)c1OC | 4.90
COc1cc(C(=O)c2cc(-c3ccccc3)on2)cc(OC)c1OC | < 4.52
COc1cc(C(=O)N2CCC(c3ccccc3)CC2)cc(OC)c1OC | < 4.52
COc1cc(/C(=N\O)c2csc(-c3ccccc3)n2)cc(OC)c1OC | 4.94
COc1cc(C(=O)Nc2csc(-c3ccccc3)n2)cc(OC)c1OC | < 4.52
COc1cc(/C(=N/N)c2csc(-c3ccccc3)n2)cc(OC)c1OC | 5.70
COc1cc(/C(=N\N)c2csc(-c3ccccc3)n2)cc(OC)c1OC | 5.74
COc1cc(C(O)c2csc(-c3ccccc3)n2)cc(OC)c1OC (configuration not stated) | < 4.52
COc1cc(C(=O)[C@@H]2CSC(c3ccc(O[Si](C)(C)C(C)(C)C)cc3)=N2)cc(OC)c1OC | 6.30
COc1cc(C(=O)c2csc(-c3ccc(CNC(=O)OC(C)(C)C)cc3)n2)cc(OC)c1OC | 5.54
CNCc1ccc(-c2nc(C(=O)c3cc(OC)c(OC)c(OC)c3)cs2)cc1 | < 5.00
COc1cc(C(=O)c2csc(-c3ccc(CN(C)C)cc3)n2)cc(OC)c1OC | < 5.00
COc1cc(NC(=O)c2csc(-c3ccccc3)n2)cc(OC)c1OC | < 4.52

System: PPC-1
Experiment: Anticancer activity against human PPC1 cells after 96 hrs by SRB assay
Type: functional, cell-based
Conditions: PPC-1, 96 h

SMILES | pIC50
COc1cc(C(=O)[C@@H]2COC(c3ccccc3)=N2)cc(OC)c1OC | 5.96
COc1cc(C(=O)c2coc(-c3ccccc3)n2)cc(OC)c1OC | 6.46
COc1cc(C(=O)c2cccc(-c3ccccc3)c2)cc(OC)c1OC | 7.10
COc1cc(C(=O)c2cc(-c3ccccc3)ncn2)cc(OC)c1OC | 5.43
COc1cc(C(=O)c2csc(-c3ccccc3)c2)cc(OC)c1OC | 7.82
COc1cc(C(=O)c2cnc(-c3ccccc3)s2)cc(OC)c1OC | < 5.00
COc1cc(C(=O)c2cc(-c3ccccc3)on2)cc(OC)c1OC | < 5.00
COc1cc(C(=O)N2CCC(c3ccccc3)CC2)cc(OC)c1OC | < 4.70
COc1cc(/C(=N\O)c2csc(-c3ccccc3)n2)cc(OC)c1OC | < 5.00
COc1cc(C(=O)Nc2csc(-c3ccccc3)n2)cc(OC)c1OC | < 5.00
COc1cc(/C(=N/N)c2csc(-c3ccccc3)n2)cc(OC)c1OC | 6.06
COc1cc(/C(=N\N)c2csc(-c3ccccc3)n2)cc(OC)c1OC | 6.02
COc1cc(C(O)c2csc(-c3ccccc3)n2)cc(OC)c1OC (configuration not stated) | < 5.00
COc1cc(C(=O)[C@@H]2CSC(c3ccc(O[Si](C)(C)C(C)(C)C)cc3)=N2)cc(OC)c1OC | 6.61
COc1cc(C(=O)c2csc(-c3ccc(CNC(=O)OC(C)(C)C)cc3)n2)cc(OC)c1OC | 5.57
CNCc1ccc(-c2nc(C(=O)c3cc(OC)c(OC)c(OC)c3)cs2)cc1 | 5.00
COc1cc(C(=O)c2csc(-c3ccc(CN(C)C)cc3)n2)cc(OC)c1OC | < 5.00
COc1cc(C(=O)c2csc(Nc3ccc(C)cc3)n2)cc(OC)c1OC | 7.44
COc1cc(NC(=O)c2csc(-c3ccccc3)n2)cc(OC)c1OC | < 5.00

System: LNCaP
Experiment: Anticancer activity against human LNCAP cells after 96 hrs by SRB assay
Type: functional, cell-based
Conditions: not given

SMILES | pIC50
COc1cc(C(=O)c2cccc(-c3ccccc3)c2)cc(OC)c1OC | 7.28
COc1cc(C(=O)c2cnc(-c3ccccc3)s2)cc(OC)c1OC | < 5.00
COc1cc(C(=O)N2CCC(c3ccccc3)CC2)cc(OC)c1OC | < 4.70
COc1cc(/C(=N\O)c2csc(-c3ccccc3)n2)cc(OC)c1OC | < 5.00
COc1cc(/C(=N/N)c2csc(-c3ccccc3)n2)cc(OC)c1OC | 5.74
COc1cc(/C(=N\N)c2csc(-c3ccccc3)n2)cc(OC)c1OC | 5.89
COc1cc(C(O)c2csc(-c3ccccc3)n2)cc(OC)c1OC (configuration not stated) | < 5.00
COc1cc(C(=O)[C@@H]2CSC(c3ccc(O[Si](C)(C)C(C)(C)C)cc3)=N2)cc(OC)c1OC | 6.26
CNCc1ccc(-c2nc(C(=O)c3cc(OC)c(OC)c(OC)c3)cs2)cc1 | 5.94
COc1cc(C(=O)c2csc(-c3ccc(CN(C)C)cc3)n2)cc(OC)c1OC | 5.99
COc1cc(C(=O)c2csc(Nc3ccc(C)cc3)n2)cc(OC)c1OC | 7.46
COc1cc(NC(=O)c2csc(-c3ccccc3)n2)cc(OC)c1OC | < 5.00

Second part, the compound after the results:

pIC50 | SMILES
6.48 | COc1cc(C(=O)c2coc(-c3ccccc3)n2)cc(OC)c1OC
5.15 | COc1cc(C(=O)c2cc(-c3ccccc3)ncn2)cc(OC)c1OC
< 5.00 | COc1cc(C(=O)c2cc(-c3ccccc3)on2)cc(OC)c1OC
< 5.00 | COc1cc(C(=O)Nc2csc(-c3ccccc3)n2)cc(OC)c1OC
5.59 | COc1cc(C(=O)c2csc(-c3ccc(CNC(=O)OC(C)(C)C)cc3)n2)cc(OC)c1OC
